Four molecules from patent publication US12391698B2, “Substituted piperidines and piperazines and methods for the treatment of CNS disorders” (SUVEN LIFE SCIENCES LIMITED, priority 2022, dated 2025) can be followed below.

For series [1], the target named is T1, recombinant human D2S receptor (Homo sapiens, UniProt P14416).
T1 construct: expressed in transfected cells
The series can be described thus: Determination of Kb at D2S receptor, pCRE-Luc reporter gene assay in CHO cells. As to conditions: for agonist activity at human recombinant D2S receptor / antagonistic activity at human recombinant D2S receptor: pCRE-Luc reporter gene assay; for Kb: with 0.3 μM Dopamine and 1 μM forskolin, luciferase readout. The class given is cell-based. On the procedure:
A stable CHO cell line expressing recombinant human […] receptor and pCRE-Luc reporter system was used for cell-based assay. The assay offers a non-radioactive based approach to determine binding of a compound to GPCRs. In this specific assay, the level of intracellular cAMP which is modulated by activation or inhibition of the receptor is measured. The recombinant cells harbor luciferase reporter gene under the control of cAMP response element.
The above cells were grown in 96 well clear bottom white plates in Hams F12 medium containing 10% fetal bovine serum (FBS). Prior to the addition of compounds or standard agonist, cells were serum starved overnight. Increasing concentrations of test compound were added along with 0.3 μM of Dopamine and 1 μM of forskolin in Opti-MEM medium to the cells. The incubation was continued at 37° C. in CO2 incubator for 4 hours. Medium was removed and cells were washed with phosphate buffered saline. The cells were lysed and luciferase activity was measured in a Luminometer. Luminescence units were plotted against the compound concentrations using GraphPad Prism software. EC50 values of the compounds were defined as the concentration required in reducing the luciferase activity by 50%. The Kb values were calculated by feeding the concentration of agonist used in the assay and its EC50 value in the same software.
References: European Journal of Pharmacology, 2005, 515, 10-19.
On the technique in general: Reporter assays use an easily measured gene product as a stand-in for the process of interest.

Series [2] is described as follows: Rodent pharmacokinetic study. It is filed as in vivo, Male Wistar rats. The conditions noted are these: rat, plasma, mean ± S.D, n = 3; for bioavailability: oral 3 mg/kg vs intravenous 1 mg/kg, read-out: F (Bioavailability). As to the method:
Male Wistar rats (260±50 g) were used as experimental animals. Animals were housed individually in polypropylene cage. Two days prior to study, male Wistar rats were anesthetized with isoflurane for surgical placement of jugular vein catheter. Rats were randomly divided for oral (3 mg/kg) and intravenous (1 mg/kg) dosing (n=3/group) and fasted overnight before oral dosing (p.o.). However, food and water were provided ad libitum to the rats allocated for intravenous dosing.
At pre-determined time points, blood samples were collected through jugular vein and replenished with an equivalent volume of normal saline. Collected blood was transferred into a labeled eppendorf tube containing 10 μL of heparin as an anticoagulant. Typically blood samples were collected at 0.08, 0.25, 0.5, 1, 2, 4, 6, 8, and 24 h post dose. Blood samples were centrifuged at 4000 rpm for 10 min. Plasma was separated and stored frozen at −80° C. until analysis. The concentrations of the test compounds were quantified in plasma by qualified LC-MS/MS method using suitable extraction technique. The test compounds were quantified in the calibration range around 1-1000 ng/mL in plasma. Study samples were analyzed using calibration samples in the batch and quality control samples spread across the batch.
Pharmacokinetic parameters Cmax, AUCt, t1/2. Clearance and Bioavailability (F) were calculated using standard non-compartmental model by using Phoenix WinNonlin 6.0.4 version software package.

For series [3], the target named is cloned human SERT receptor (Homo sapiens, UniProt P31645). Nature of the series: Determination of Ki at SERT receptor (SPA binding, [3H]-Citalopram). As to conditions: HEK293 recombinant cells, [3H]-Citalopram 2 nM. The gist of the method:
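HEK293-expressed human SERT; [3H]-citalopram at 2 nM final, nonspecific binding with 0.1 mM venlafaxine. Incubated 3 h at r.t. in 50 mM Tris-HCl pH 7.4, 150 mM NaCl, 5 mM KCl with SPA beads. Bead-proximal radioactivity compared with control values.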

Series [4] concerns Male Wistar rats. The series can be described thus: Effect on sleep/wake profile (EEG/EMG telemetry). The class given is in vivo, rat. The conditions noted are these: 10 mg/kg, p.o., dosed 15 min prior to lights-off. The text has this:
Male Wistar rats were anesthetized with isoflurane (Baxter India Private Limited: 4% in oxygen for induction; 2% for maintenance) and were fixed into the stereotaxic frame (Stoelting, Illinois, USA) to perform surgery. An incision was made to reveal bregma from which coordinates were taken. Telemetric transmitter (Model F40-EET; DSI, St. Paul, MN, USA) was implanted into intraperitoneal cavity of the rats and leads were tunneled subcutaneously to the skull. One pair of electrodes were implanted epidurally into the frontal cortex region using stainless steel screws (CMA Microdialysis, Stockholm, Sweden) at coordinates of AP +3.2 mm, ML ±3.0 mm (Paxinos and Watson 2004) for recording of EEG and electrodes were fixed to the skull with dental acrylic cement (Dentalon® plus). The second set of lead wires were implanted into the neck nuchal muscle to record electromyogram (EMG). After a surgical recovery of minimum 3 weeks, animals were acclimatized to the handling procedures and were given a mock dosing for 3 days before the first experimental day.
One hour prior to lights-off, transmitter was switched on using a magnet and animals were transferred on to the receiver along with the home cage. […]
The amount of time spent in wake was determined for every 30 min and comparison between treatments was done using Bonferroni's post test.

The test system of series [5] is Male Wistar rats. The series can be described thus: DOI-induced head twitch response. It is filed as in vivo, rat. As to conditions: 3.0 mg/kg, s.c., 30 min prior to DOI. On the procedure:
On day 1 male Wistar rats (220-250 g) were habituated in a circular cylinder for a period of 15 min. On day 2, the rats were brought to the experimental room 30 min prior to the experiment. All the animals were administered with respective formulations i.e. vehicle or test compound 30 min prior to DOI or vehicle administration. Immediately following DOI or vehicle administration, the animals were kept in the circular cylinder for a period of 10 min to score the head twitches. Compounds which act as 5-HT2A antagonists attenuate DOI-induced head twitches.

[6] abbreviates: intravenous (bolus) 1 mg/kg, male Wistar rats.
Where [7] appears, read: oral (gavage) 3 mg/kg, fasted male Wistar rats.

Where a name gives a salt, the structure may show the parent alone. Read-outs that look alike come from different tables or passages of the source.

Sequence of cloned human SERT receptor (P31645 whole entry): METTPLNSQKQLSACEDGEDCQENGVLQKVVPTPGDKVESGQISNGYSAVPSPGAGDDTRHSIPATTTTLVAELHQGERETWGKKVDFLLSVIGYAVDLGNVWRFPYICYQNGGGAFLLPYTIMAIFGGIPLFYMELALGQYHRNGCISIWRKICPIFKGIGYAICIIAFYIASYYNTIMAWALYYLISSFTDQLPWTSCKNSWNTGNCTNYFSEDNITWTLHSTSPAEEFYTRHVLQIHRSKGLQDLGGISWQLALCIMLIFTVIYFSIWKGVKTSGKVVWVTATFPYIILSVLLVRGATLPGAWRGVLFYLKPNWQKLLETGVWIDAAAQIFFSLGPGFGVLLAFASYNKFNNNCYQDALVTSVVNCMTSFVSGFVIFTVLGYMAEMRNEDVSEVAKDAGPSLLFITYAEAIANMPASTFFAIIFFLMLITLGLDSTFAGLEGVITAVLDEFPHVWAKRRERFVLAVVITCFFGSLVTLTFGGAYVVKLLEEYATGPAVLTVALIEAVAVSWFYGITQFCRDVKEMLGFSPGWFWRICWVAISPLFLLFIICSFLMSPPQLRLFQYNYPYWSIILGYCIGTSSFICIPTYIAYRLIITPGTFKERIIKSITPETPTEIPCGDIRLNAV
T1 sequence (P14416 1-414 isoform P14416-2): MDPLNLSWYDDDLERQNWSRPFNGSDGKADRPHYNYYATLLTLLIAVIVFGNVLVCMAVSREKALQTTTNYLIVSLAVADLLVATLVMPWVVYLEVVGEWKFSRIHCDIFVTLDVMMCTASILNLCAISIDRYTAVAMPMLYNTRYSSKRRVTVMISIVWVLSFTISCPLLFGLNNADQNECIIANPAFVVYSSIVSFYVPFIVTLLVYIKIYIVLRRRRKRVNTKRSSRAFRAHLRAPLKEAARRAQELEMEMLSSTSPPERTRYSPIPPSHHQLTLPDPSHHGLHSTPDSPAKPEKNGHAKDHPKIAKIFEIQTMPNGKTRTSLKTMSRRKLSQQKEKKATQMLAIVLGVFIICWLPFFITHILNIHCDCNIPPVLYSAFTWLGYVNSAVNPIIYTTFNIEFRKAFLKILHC

For `O=C1C[C@@H]2CCCN2C(=O)N1CCCCN1CCN(c2cccc3sccc23)CC1` [Example 4, 2-[4-(4-Benzo[b]thiophen-4-yl-piperazin-1-yl)-butyl]-tetrahydro-pyrrolo[1,2-c]pyrimidine-1,3-dione oxalate], in series [1], the “agonist activity at human recombinant D2S receptor” value is reported as “no detectable agonist activity”, the “antagonistic activity at human recombinant D2S receptor” value is reported as “antagonistic activity” and the Kb came out at 54.4 nM. In addition, in series [2] (setting [6]), the area under the curve AUC(0-t) (in general, exposure summed from dosing to a finite time, without extrapolation to infinity) amounted to 350 ± 40 ng·h/mL; the clearance – broadly, the volume of plasma or blood freed of the substance per unit of time – worked out at 48 ± 5 mL/min/kg; the half-life (as a rule, the time needed for the level to fall by half in the phase considered) is 0.8 ± 0.2 h. In addition, in series [2] (male Wistar rats), the bioavailability (commonly dose-corrected exposure relative to a reference, in per cent) is 16 ± 1%. For the same molecule, in series [2] (setting [7]), the AUC(0-t) was 169 ± 14 ng·h/mL, the Cmax (usually the peak of the concentration-time curve) stood at 77 ± 2 ng/mL and the half-life is 1.1 ± 0.3 h. The inhibition constant Ki (usually a measure of affinity in units of concentration, obtained from inhibition or displacement) in series [3] (read-out: Ki hSERT) was found to be 228 nM.
As to `O=C1C[C@@H]2C[C@H](F)CN2C(=O)N1CCCCN1CCN(c2nsc3ccccc23)CC1` [Example 9, 2-[4-(4-Benzo[d]isothiazol-3-yl-piperazin-1-yl)-butyl]-6-fluoro-tetrahydro-pyrrolo[1,2-c]pyrimidine-1,3-dione oxalate], in series [2] (setting [6]), the AUC(0-t) is 415 ± 69 ng·h/mL, the clearance was found to be 40 ± 6 mL/min/kg and the half-life was 1.8 ± 0.1 h. The bioavailability in series [2] (male Wistar rats) was determined as 14 ± 2%. In series [2] (setting [7]), this molecule gave an AUC(0-t) of 178 ± 23 ng·h/mL, a Cmax of 164 ± 43 ng/mL and a half-life of 1.4 ± 0.3 h. Moreover, the inhibitory constant (Ki) in series [3] (read-out: Ki hSERT) was 833 nM.
As to `O=C1C[C@@H]2CCCN2C(=O)N1CCCCN1CCN(c2nsc3ccccc23)CC1` [Example 2, 2-[4-(4-Benzo[d]isothiazol-3-yl-piperazin-1-yl)-butyl]-tetrahydro-pyrrolo[1,2-c]pyrimidine-1,3-dione oxalate], in series [1], the “agonist activity at human recombinant D2S receptor” value is listed as “no detectable agonist activity”, the “antagonistic activity at human recombinant D2S receptor” value is recorded as “antagonistic activity” and the Kb worked out at 33 nM. In series [2] (setting [6]), this molecule had an AUC(0-t) of 544 ± 19 ng·h/mL, a clearance of 30 ± 1 mL/min/kg and a half-life of 2 ± 0.7 h. Moreover, the bioavailability in series [2] (male Wistar rats) was 15 ± 3%. In series [2] (setting [7]), this molecule had an exposure AUC(0-t) of 244 ± 53 ng·h/mL, a Cmax of 253 ± 59 ng/mL and a half-life of 1.3 ± 0.1 h. Besides, in series [4], the “change in percent time wake” value was “no change”. Also, the “Inference, DOI-induced head twitch response” value in series [5] is reported as “Active”. The Ki in series [3] (read-out: Ki hSERT) was determined as 1060 nM.
For the molecule `O=C1C[C@@H]2C[C@H]3C[C@H]3N2C(=O)N1CCCCN1CCN(c2nsc3ccccc23)CC1` [Example 11, 3-[4-(4-Benzo[d]isothiazol-3-yl-piperazin-1-yl)-butyl]-hexahydro-1b,3-diaza-cyclopropa[a]indene-2,4-dione oxalate], in series [2] (setting [6]), the AUC(0-t) worked out at 412 ± 44 ng·h/mL, the clearance turned out to be 41 ± 5 mL/min/kg and the half-life was 1.3 ± 0.1 h. For the same molecule, in series [2] (male Wistar rats), the bioavailability was found to be 8 ± 5%. In series [2] (setting [7]), this molecule had an AUC(0-t) of 98 ± 63 ng·h/mL, a Cmax of 94 ± 52 ng/mL and a half-life of 2 ± 0.2 h. Moreover, in series [3] (Ki hSERT), the inhibition constant Ki was found to be 1280 nM.
